Laboratory results published in PMC8421406, “C9orf72-derived arginine-rich poly-dipeptides impede phase modifiers” (Nature Communications, 2021).
“Also recorded” adds a separate entry of the source. Where no end group is shown, it is not given here. HA = HA epitope tag

Experiments:
[1] = tested on: FUS droplets (MBP:FUS/MBP:FUS:EGFP) / Kapβ2; assay: Fluorescence microscopy of FUS droplets; format: biochemical; details: 16 μM Kapβ2, 16 μM Kapβ2–M9M complex, 50 μM PR20, repeated three times
Kapβ2 = assay: Solution NMR (1H-13C methyl) of labelled Kapβ2; format: binding
Procedure: The Kapβ2 expression plasmid was transformed into BL21(DE3) cells. The protein samples with ^1H,^13C-labeled methyl groups in deuterium background were prepared as described in a previous study. The cells were grown in medium with ^15NH4Cl (2 gL^−1, CIL) and ^2H7-glucose (2 g L^−1, CIL) in 99.9% ^2H2O (Isotec). The precursors for methyl groups of Ile, Val, and Leu, α-ketobutyric acid (50 mg L^−1) and α-ketoisovaleric acid (80 mg L^−1), and [^13CH3] methionine (50 mg L^−1) were added to the culture 1 h before the addition of IPTG. Protein expression was induced by the addition of 0.5 mM IPTG at OD600 ~ 0.6, followed by ~16 h of incubation at 25 °C. […] Protein concentration was determined spectrophotometrically at 280 nm using a corresponding extinction coefficient.
The isotopically labeled Kapβ2 was prepared in the NMR buffer containing 20 mM ^2H-Tris pH 7.4, 150 mM NaCl, 2 mM MgCl2, 2 mM DTT, and 2% glycerol, concentrated to 20 μM. […] Perturbation of the side chain methyl resonances were each monitored using ^1H-^13C heteronuclear multiple quantum coherence. […] The perturbations of the resonances were evaluated based on chemical shift change or intensity change. […]
In order to investigate the interaction between Kapβ2 and PR poly-dipeptide by NMR, the NMR spectra of the isotopically labeled Kapβ2 in the absence and presence of the synthetic peptide of PR20:HA were measured. […]

In the case of “PR20: twenty repeats of proline:arginine with an HA epitope tag at the C terminus, synthesized by SCRUM, Inc. (PRPRPRPRPRPRPRPRPRPRPRPRPRPRPRPRPRPRPRPR-{HA})”, the “Effect on FUS droplets (microscopy)” value [1] is reported as “not melted in the presence of PR20”, the “Perturbation of Kapβ2 methyl resonances” value (Kapβ2; 20 μM labelled Kapβ2, 20 °C, 20 mM Tris pH 7.4, 150 mM NaCl, 600/800 MHz) is reported as “induced significant perturbations to several resonances of Kapβ2; also recorded: several resonances show significant perturbations induced only by PR20” and the “Binding site on Kapβ2 by NMR” value (Kapβ2; comparison of perturbations by PR20, M9M and FUS-ΔNLS) is reported as “partially occupy the NLS-binding site of Kapβ2”.
